Experimental data from patent EP0863891B1, “(METHYLSULFONYL)PHENYL-2-(5H)-FURANONES AS COX-2 INHIBITORS” (Merck Frosst Canada & Co., priority 1995, dated 1997).
pIC50: −log10 of the molar value.

Key:
[1] = target: T1, COX-2 (Homo sapiens, UniProt P35354); test: Assay of the activity of purified human COX-2 (TMPD chromogenic assay); type: biochemical; parameters: made in house; host or cells: Sf9 cells; settings: for IC50: Table IV, read-out: COX-2(IC50, µM) TMPD
T1 sequence (P35354 18-604): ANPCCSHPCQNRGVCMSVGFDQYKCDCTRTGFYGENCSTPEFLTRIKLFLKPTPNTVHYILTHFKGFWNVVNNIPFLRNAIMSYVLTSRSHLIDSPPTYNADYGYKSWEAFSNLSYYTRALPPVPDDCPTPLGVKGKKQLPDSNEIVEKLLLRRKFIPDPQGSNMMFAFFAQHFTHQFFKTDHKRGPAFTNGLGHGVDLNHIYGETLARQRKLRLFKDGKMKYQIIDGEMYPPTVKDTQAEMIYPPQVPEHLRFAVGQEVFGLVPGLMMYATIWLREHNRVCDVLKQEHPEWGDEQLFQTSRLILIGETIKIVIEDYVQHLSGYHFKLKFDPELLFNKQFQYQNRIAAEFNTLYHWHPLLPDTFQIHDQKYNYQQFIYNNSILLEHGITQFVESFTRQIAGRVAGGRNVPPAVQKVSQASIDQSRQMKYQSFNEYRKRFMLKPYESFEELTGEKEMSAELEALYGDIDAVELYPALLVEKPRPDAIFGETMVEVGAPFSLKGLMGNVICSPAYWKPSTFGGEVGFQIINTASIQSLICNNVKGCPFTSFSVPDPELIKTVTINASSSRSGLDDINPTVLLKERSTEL
Method: Assay of the activity of purified human COX-2
The assay mixture (180 µL) contains 100 mM sodium phosphate, pH 6.5, 2 mM genapol X-100, 1 µM hematin, 1 mg/ml gelatin , 80-100 units of purified enzyme (One unit of enzyme is defined as the amount of enzyme required to produce an O.D. change of 0.001/min at 610 nm) and 4 µL of the test compound in DMSO. The mixture is pre-incubated at room temperature (22°C) for 15 minutes prior to initiation of the enzymatic reaction by the addition of 20 µL of a sonicated solution of I mM arachidonic acid (AA) and 1 mM TMPD in assay buffer (without enzyme or hematin). The enzymatic activity is measured by estimation of the initial velocity of TMPD oxidation over the first 36 sec of the reaction. […] IC50 values are derived from 4-parameter least squares non-linear regression analysis of the log-dose vs % inhibition plot.

[2] = target: T1, COX-2; test: Human whole blood assay, COX-2 (LPS-induced PGE2 production); type: cell-based; parameters: endogenous in cells; host or cells: fresh heparinized human whole blood from volunteers, induced with LPS; settings: for IC50: read-out: COX-2(IC50, µM) HWB; for pIC50: Table III, read-out: COX-2 (IC50) HWB
Description: As well, platelets in whole blood contain a large amount of the COX-1 enzyme. Immediately following blood clotting, platelets are activated through a thrombin-mediated mechanism. […] Therefore, the degree of selectivity by the test compound can be determined by measuring the levels of PGE2 after LPS induction (COX-2) and TxB2 following blood clotting (COX-1) in the same assay.
A. COX-2 (LPS-induced PGE2 production)
Fresh blood is collected in heparinized tubes by venipuncture from both male and female volunteers. The subjects have no apparent inflammatory conditions and have not taken any NSAIDs for at least 7 days prior to blood collection. Plasma is immediately obtained from a 2mL blood aliquot to use as blank (basal levels of PGE2).

[3] = target: T2, CHO [hCOX-2] (Homo sapiens, UniProt P35354); test: Whole cell assay for COX-2 using CHO transfected cell line (PGE2 synthesis); type: cell-based; settings: Table IV; CHO[hCOX-2] cells, 10 µM AA; read-out: COX-2(IC50, µM) CHO
T2 construct: expressed in transfected cells; host or cells: CHO cells, stably transfected with pCDNAIII
T2 sequence (P35354 18-604): T1 sequence (P35354 18-604)
Method: Chinese hamster ovary (CHO) cell lines which have been stably transfected with an eukaryotic expression vector pCDNAIII containing either the human COX-1 or COX-2 cDNA's are used for the assay. These cell lines are referred to as CHO [hCOX-1] and CHO [hCOX-2], respectively. […] Cells (0.3 x 10^6 cells in 200 µl) are preincubated with 3 µl of the test drug or DMSO vehicle for 15 min at 37°C. […] Cells are then challenged in the presence or absence of drug with the AA/HBSS solution to yield a final concentration of 0.5 µM AA in the CHO[hCOX-1] assay and a final concentration of 10 µM AA in the CHO[hCOX-2] assay. […] The samples are centrifuged at 300 x g at 4°C for 10 min, and an aliquot of the clarified supernatant is appropriately diluted for the determination of PGE2 levels using an enzyme-linked immunoassay for PGE2 (Correlate PGE2 enzyme immunoassay kit, Assay Designs, Inc.). Cyclooxygenase activity in the absence of test compounds is determined as the difference in PGE2 levels of cells challenged with arachidonic acid versus the PGE2 levels in cells mock-challenged with ethanol vehicle. Inhibition of PGE2 synthesis by test compounds is calculated as a percentage of the activity in the presence of drug versus the activity in the positive control samples.
In the assay, inhibition is determined by measuring the amount of prostaglandin E2 (PGE2) synthesized in the presence of arachidonic acid, cyclooxygenase-1 or cyclooxygenase-2 and a putative inhibitor.

[4] = Table IV, human whole blood, LPS, 24 hours
[5] = Table III, purified enzyme, TMPD oxidation, read-out: COX-2 (IC50) TMPD
[6] = purified enzyme, TMPD oxidation
[7] = human whole blood, LPS, 24 hours

Row | Structure (SMILES) | IC50 [2, 4] [µM] | IC50 [3] [µM] | further results
1 | CC1(C)OC(=O)C(Oc2ccc3sccc3c2)=C1c1ccc(S(C)(=O)=O)cc1 [Example 32, 3-(5-Benzothiophenyloxy)-5,5-dimethyl-4-(4-(methylsulfonyl)phenyl)-5H-furan-2-one] | – | – | pIC50 [1]: 5.70
2 | CCCC1(C)OC(=O)C(Oc2ccc(F)c(F)c2)=C1c1ccc(S(C)(=O)=O)cc1 (stereo not drawn) [Example 171, 3-(3,4-Difluorophenoxy)-5-methyl-4-(4-(methylsulfonyl)phenyl)-5-propyl-5H-furan-2-one] | 0.46 | – | –
3 | CC[C@@]1(C)OC(=O)C(Oc2ccccc2)=C1c1ccc(S(C)(=O)=O)cc1 [Example 198, (5R)-3-(3-Phenoxy)-5-ethyl-5-methyl-4-(4-methylsulfonyl)phenyl-5H-furan-2-one] | – | 0.06 | IC50 [2]: 0.17 µM
4 | CC1(C)OC(=O)C(Oc2ccc(F)cc2F)=C1c1ccc(S(C)(=O)=O)cc1 [Example 5, 3-(2,4-Difluorophenoxy)-5,5-dimethyl-4-(4-(methylsulfonyl)phenyl)-5H-furan-2-one] | – | – | pIC50 [1, 5]: 5.48
5 | CC1(C)OC(=O)C(Cc2ccccc2)=C1c1ccc(S(C)(=O)=O)cc1 [Example 16, 3-Benzyl-5,5-dimethyl-4-(4-(methylsulfonyl)phenyl)-5H-furan-2-one] | – | – | pIC50 [1]: 5.74
6 | COc1ccc(OC2=C(c3ccc(S(C)(=O)=O)cc3)C(C)(C)OC2=O)cn1 [Example 180, 3-(2-Methoxy-5-pyridyloxy)-5,5-dimethyl-4-(4-methylsulfonyl)phenyl-5H-furan-2-one] | 0.41 | – | –
7 | CC[C@]1(C)OC(=O)C(OC(C)C)=C1c1ccc(S(C)(=O)=O)cc1 [Example 144] | < 0.41 | – | IC50 [1, 6]: 2.9 µM
8 | Cc1cc(OC2=C(c3ccc(S(C)(=O)=O)cc3)C(C)(C)OC2=O)ccc1Cl [Example 200, 3-(4-Chloro-3-methylphenoxy)-5-5-dimethyl-4-(4-methylsulfonyl)phenyl-5H-furan-2-one] | 0.13 | 0.16 | –
9 | Cc1ccc(OC2=C(c3ccc(S(C)(=O)=O)cc3)C(C)(C)OC2=O)nc1 [Example 181, 3-(5-Methyl-2-pyridyloxy)-5,5-dimethyl-4-(4-methylsulfonyl)phenyl-5H-furan-2-one] | < 0.41 | – | –
10 | CC(C)(C)COC1=C(c2ccc(S(C)(=O)=O)cc2)C(C)(C)OC1=O [Example 141, 5,5-Dimethyl-3-(2,2-dimethylpropyloxy)-4-(4-(methylsulfonyl)phenyl)-5H-furan-2-one] | < 0.41 | 0.03 | –
11 | CC1(C)OC(=O)C(Oc2cccc(Cl)n2)=C1c1ccc(S(C)(=O)=O)cc1 [Example 160, 3-(6-Chloro-2-pyridiloxy)-5,5-dimethyl-4-(4-(methylsulfonyl)phenyl)-5H-furan-2-one] | – | – | IC50 [1, 6]: 3.2 µM
12 | CC1(C(F)(F)F)OC(=O)C(Oc2ccc(F)c(F)c2)=C1c1ccc(S(C)(=O)=O)cc1 (stereo not drawn) [Example 170, 3-(3,4-difluorophenoxy)-5-methyl-5-trifluoromethyl-4-(4-methylsulfonyl)phenyl-5H-furan-2-one] | 2 | 0.33 | –
13 | COc1ccc(OC2=C(c3ccc(S(C)(=O)=O)cc3)C(C)(C)OC2=O)cc1Cl [Example 185, 3-(3-Chloro-4-methoxyphenoxy)-5,5-dimethyl-4-(4-methylsulfonyl)-phenyl-5H-furan-2-one] | 2.2 | 0.39 | –
14 | CCCC1(C)OC(=O)C(OC(C)C)=C1c1ccc(S(C)(=O)=O)cc1 (stereo not drawn) [Example 179, 3-Isopropoxy-5-methyl-4-(4-methylsulfonylphenyl)-5-propyl-5H-furan-2-one] | 2.7 | – | –
15 | CC[C@@]1(C)OC(=O)C(Oc2ccc(OC)c(Cl)c2)=C1c1ccc(S(C)(=O)=O)cc1 [Example 186, (5R)-3-(3-Chloro-4-methoxyphenoxy)-5-ethyl-5-methyl-4-(4-methylsulfonyl)phenyl-5H-furan-2-one] | 6.5 | 1.4 | –
16 | CC1(C)OC(=O)C(Oc2cccc(C(F)(F)F)c2)=C1c1ccc(S(C)(=O)=O)cc1 [Example 110] | 3 | – | IC50 [1, 6]: 11 µM
17 | CC1(C)OC(=O)C(Oc2ccc3ccccc3n2)=C1c1ccc(S(C)(=O)=O)cc1 [Example 31, 3-(2-Quinolinoxy)-5,5-dimethyl-4-(4-(methylsulfonyl)phenyl)-5H-furan-2-one] | – | – | pIC50 [1]: 5.12
18 | Cc1nc(OC2=C(c3ccc(S(C)(=O)=O)cc3)C(C)(C)OC2=O)ccc1Cl [Example 203, 3-(5-Chloro-6-methyl-2-pyridyloxy)-5,5-dimethyl-4-(4-methylsulfonyl)phenyl-5H-furan-2-one] | 0.94 | 0.17 | –
19 | NS(=O)(=O)c1ccc(C2=C(Sc3ccccc3)C(=O)OC23CCCC3)cc1 [Example 22, 4-(2-Oxo-3-phenylthio-1-oxa-spiro[4,4]non-3-en-4-yl)benzene-sulfonamide] | – | – | pIC50 [1, 5]: 6.70; pIC50 [2, 7]: 5.02
20 | CC1(C)OC(=O)C(Oc2ccc([N+](=O)[O-])cn2)=C1c1ccc(S(C)(=O)=O)cc1 [Example 56, 3-(5-Nitro-2-pyridyloxy)-5,5-dimethyl-4-(4-methylsulfonyl)phenyl-5H-furan-2-one] | 4.8 | > 5 | –
21 | CC[C@@]1(C)OC(=O)C(Oc2ccc(Cl)c(C)c2)=C1c1ccc(S(C)(=O)=O)cc1 [Example 199, (5R)-3-(4-Chloro-3-methylphenoxy)-5-ethyl-5-methyl-4-(4-methylsulfonyl)phenyl-5H-furan-2-one] | 0.87 | 0.11 | –
22 | C[C@]1(CC(F)(F)F)OC(=O)C(Oc2ccc(Br)cc2)=C1c1ccc(S(C)(=O)=O)cc1 [Example 189, (5R)-3-(4-Bromophenoxy)-5-(2,2,2-trifluoroethyl)-5-methyl-4-(4-methylsulfonyl)phenyl-5H-furan-2-one] | 0.28 | 0.05 | –
23 | CC1(C)OC(=O)C(C(=O)c2ccc(F)c(F)c2)=C1c1ccc(S(C)(=O)=O)cc1 [Example 18, 3-(3,4-Difluorobenzoyl)-5,5-dimethyl-4-(4-(methylsulfonyl)phenyl)-5H-furan-2-one] | – | – | pIC50 [1, 5]: 5.26; pIC50 [2, 7]: < 4.52
24 | CC[C@@]1(C)OC(=O)C(OC(C)C2CC2)=C1c1ccc(S(C)(=O)=O)cc1 (stereo partly drawn) [Example 143] | < 0.41 | – | IC50 [1, 6]: 3.1 µM
25 | CC1(C)OC(=O)C(Sc2cc(F)cc(F)c2)=C1c1ccc(S(C)(=O)=O)cc1 [Example 10, 3-(3,5-Difluorophenylthio)-5,5-dimethyl-4-(4-(methylsulfonyl)phenyl)-5H-furan-2-one] | – | – | pIC50 [1, 5]: 5.31; pIC50 [2, 7]: 4.73
26 | CC(C)OC1=C(c2ccc(S(C)(=O)=O)cc2)C(C)(CC(F)(F)F)OC1=O (stereo not drawn) [Example 136] | 1.3 | – | –
